Article PMC5727127, “H3K14ac is linked to methylation of H3K9 by the triple Tudor domain of SETDB1” (Nature Communications, 2017)

What was measured:
SETDB1 3TD W358A (TD3) = target: T1, SETDB1 3TD W358A (TD3) (Homo sapiens, UniProt Q15047, W358A); assay: ITC binding of 3TD W358A to H3 peptides; conditions: W358A vs wildtype
T1 construct: cloned into the pET28a-MHL (residues 190–410), pGEX6P2, and pGEX-4T-1 (residues 197–403) vectors; 6×His; made in house; host or cells: E. coli BL21 derivative (SGC) with pRARE
Method: (§1) ITC experiments were carried out at 25 °C on a VP-ITC calorimeter (MicroCal). Protein and peptide were kept in an identical buffer of 20 mM Tris/HCl pH 7.0 and 150 mM NaCl. ITC measurements were carried out with protein and ligand concentrations ranging from 50 to 100 μM and 1–2 mM, respectively. Binding isotherms were analyzed by nonlinear least-squares fitting of the data using Microcal ORIGIN software (Microcal) using a one-site binding model.

SETDB1 3TD Y268A = assay: Modified histone peptide array binding of 3TD Y268A; conditions: Y268A vs wildtype; peptide array and ITC assays
Method: (§2) Experiments to determine the binding specificity of 3TD wildtype and mutants were performed using CelluSpots peptide arrays (MODified Histone Peptide Array, Active Motif), as described previously, in 20 mM HEPES pH 7.5, 100 mM KCl, 1 mM EDTA, 0.2 mM DTT, and 10% glycerol. All peptide array binding studies were conducted at least in two technical repeats. Annotations of all spots are given in Supplementary Table 2. The amounts of GST-fused Tudor proteins used in peptide array binding and western blot analyses ranged from 0.5 to 100 nM. For methylation analysis, MODified Histone Peptide arrays (Active Motif) were incubated with 20 nM SETDB1 in buffer (50 mM Tris/HCl pH 9.0, 4 mM DTT, 5 mM MgCl2) supplemented with 0.38 µM radioactively labeled [methyl-3H]-AdoMet (Perkin Elmer) for 2 h at room temperature. The arrays were then washed 5 times with wash buffer (100 mM NH4HCO3 and 1% SDS), incubated in Amplify NAMP100 (GE Healthcare) for 5 min, and then exposed to Hyperfilm TM ECL high-performance chemiluminescence film (GE Healthcare) in the dark at −80 °C for 1–7 days.

SETDB1 3TD W358A = assay: Modified histone peptide array binding of 3TD W358A; conditions: W358A vs wildtype
Method: as §2

[1] = system: SETDB1 3TD, GST-tagged, wildtype; assay: Modified histone peptide array binding of 3TD wildtype; conditions: GST-tagged 3TD, modified histone peptide arrays
Method: as §2

SETDB1 3TD F332A = assay: Modified histone peptide array binding of 3TD F332A; conditions: replacement of F332 by alanine; peptide array and ITC
Method: as §2

SETDB1 3TD Y268A (TD2) = target: T2, SETDB1 3TD Y268A (TD2) (Homo sapiens, UniProt Q15047, Y268A); assay: ITC binding of 3TD Y268A to H3 peptides; conditions: Fig. 2c, Y268A relative to wildtype
T2 construct: cloned into the pET28a-MHL (residues 190–410), pGEX6P2, and pGEX-4T-1 (residues 197–403) vectors; 6×His; made in house; host or cells: E. coli BL21 derivative (SGC) with pRARE
Method: as §1

SETDB1 3TD, wildtype = target: T3, SETDB1 3TD, wildtype (Homo sapiens, UniProt Q15047); assay: NMR chemical shift perturbation binding to 3TD; conditions: 15N HSQC, 25 °C, pH 7.0, 150 mM NaCl
T3 construct: cloned into the pET28a-MHL (residues 190–410), pGEX6P2, and pGEX-4T-1 (residues 197–403) vectors; 6×His; made in house; host or cells: E. coli BL21 derivative (SGC) with pRARE
Method: NMR experiments were collected on a Bruker Avance 500-MHz spectrometer equipped with a cryogenic probe. Chemical shift perturbation experiments were carried out using uniformly ^15N-labeled wildtype 3TD protein in 20 mM Tris/HCl pH 7.0 and 150 mM NaCl. ^1H, ^15N HSQC spectra were recorded at 25 °C in the presence of increasing concentrations of histone tail peptides. K d values were calculated by a nonlinear least-squares analysis in Kaleidagraph using the equation Δδ=ΔδmaxcL+cP+Kd-cL+cP+Kd^2-4cLcP∕2cP, where c L is the concentration of the peptide, c P is the concentration of the protein, Δδ is the observed normalized chemical shift change, and Δδ max is the normalized chemical shift change at saturation, calculated as Δδ=ΔδH^2+ΔδN∕5^2, where δ is the chemical shift in p.p.m.
Supplementary Figure 1: Peptide binding of 3TD. (a) Titration of 3TD binding to peptide arrays. Note the specific binding to H3K9me1/2/3-K14ac double modified […]
concentration (100 nM). (b) ITC analysis of 3TD binding to single modified H3 tail […]
peptides. (c) NMR chemical shift perturbation experiments carried out to detect potentially weak binding of 3TD to H3K14ac, H3K9me3 and unmodified H3. Weak binding of H3K14ac could be detected and the […]
H3 was observed. Panel a relates to Fig. 1, panels b and c to Fig. 2.
(1 picture or pasted object on this page, not shown here)

HEK293 cells [2] = assay: Western blot of histone modifications after HDAC inhibitor treatment; format: cell-based, human; conditions: HEK293, 48 h, 0.4 mM TSA or 5 mM sodium butyrate; for K9 methylation content of H3 from treated cells: western blot anti-K9me; for H3K14ac signal of H3 from treated cells: western blot anti-K14ac
Method: (§3) Native histones were isolated by acid extraction[55] from HEK293 cells, and recombinant histone H3 was purchased from New England Biolabs. For the experiment with HDAC inhibitors, cells were treated for 48 h with 0.4 mM TSA or 5 mM sodium butyrate. Five micrograms of native histones and matching amount of recombinant H3 were electrophoresed on 18% SDS-PAGE and transferred onto nitrocellulose membranes. The membrane was then blocked in 5% milk in TBST and incubated with purified GST-tagged 3TD, followed by the anti-GST (GE Healtcare 27457701A, dilution 1:5000) and anti-goat antibody (Sigma A4174, dilution 1:10000). The amount of GST-fused Tudor protein used in western blot analyses was 100 nM. All experiments were performed in duplicates or triplicates. In the western blots, following antibodies were used: anti-K14ac (Millipore MABE351, dilution for checking specificity: 1:2000 or 1:1000; for western blot: 1:500), anti-H3K9me3 (Abcam ab8898, dilution 1:2000), anti-H3K9me2 (Abcam ab1220, dilution 1:1000), and anti-H3K4me3 (Abcam ab8580, dilution 1:2000). For specificity analysis of antibodies, see Supplementary Fig. 13. Secondary antibodies were anti-rabbit IgG HRP (GE Healtcare NA934, dilution 1:5000) and anti-mouse IgG HRP (GE Healtcare NXA931, dilution 1:5000). Native histone and nucleosome pull-down experiments were done at least in two biological repeats. All antibodies were used following the manufacturer’s recommendations. Uncropped gel images are shown in Supplementary Fig. 14.

HEK293 cells [3] = assay: Far-western blot of 3TD binding to histones from HDAC inhibitor treated cells; format: cell-based, human; conditions: HEK293, 48 h, 0.4 mM TSA or 5 mM sodium butyrate, 100 nM GST-3TD
Method: as §3, with “All antibodies were used following the manufacturer’s recommendations. Uncropped gel images are shown in Supplementary Fig. 14.” left out

| change of binding, Y268A (SETDB1 3TD Y268A) | change of peptide array binding, W358A (SETDB1 3TD W358A) | peptide array binding, 3TD [1] | SMILES | fold reduction of affinity, W358A (SETDB1 3TD W358A (TD3)) | K9 methylation content of H3 from treated cells (HEK293 cells [2]) | H3K14ac signal of H3 from treated cells (HEK293 cells [2]) | 3TD binding to histones from treated cells (HEK293 cells [3]) | also measured |
| --- | --- | --- | --- | --- | --- | --- | --- | --- |
| not affected | loss | strong and selective binding | CNCCCC[C@H](NC(=O)[C@H](CCCNC(=N)N)NC(=O)[C@H](C)NC(=O)[C@@H](NC(=O)[C@H](CCC(N)=O)NC(=O)[C@@H](N)CCCCN)[C@@H](C)O)C(=O)N[C@@H](CO)C(=O)N[C@H](C(=O)NCC(=O)NCC(=O)N[C@@H](CCCCNC(C)=O)C(=O)N[C@@H](C)C(=O)N1CCC[C@H]1C(=O)N[C@@H](CCCNC(=N)N)C(=O)N[C@@H](CCCCN)C(=O)N[C@@H](CCC(N)=O)C(=O)O)[C@@H](C)O [H3K9me1/K14ac] | – | – | – | – | loss of binding in ITC, W358A (SETDB1 3TD W358A (TD3)): completely lost |
| not affected | strong reduction in binding | strong and selective binding | CC(=O)NCCCC[C@H](NC(=O)CNC(=O)CNC(=O)[C@@H](NC(=O)[C@H](CO)NC(=O)[C@H](CCCCN(C)C)NC(=O)[C@H](CCCNC(=N)N)NC(=O)[C@H](C)NC(=O)[C@@H](NC(=O)[C@H](CCC(N)=O)NC(=O)[C@@H](N)CCCCN)[C@@H](C)O)[C@@H](C)O)C(=O)N[C@@H](C)C(=O)N1CCC[C@H]1C(=O)N[C@@H](CCCNC(=N)N)C(=O)N[C@@H](CCCCN)C(=O)N[C@@H](CCC(N)=O)C(=O)O [H3K9me2/K14ac] | 18 fold | – | – | – | change of binding, F332A (SETDB1 3TD F332A): strong reduction in affinity |
| clear reduction in affinity | only moderately reduced | strong and selective binding | CC(=O)NCCCC[C@H](NC(=O)CNC(=O)CNC(=O)[C@@H](NC(=O)[C@H](CO)NC(=O)[C@H](CCCC[N+](C)(C)C)NC(=O)[C@H](CCCNC(=N)N)NC(=O)[C@H](C)NC(=O)[C@@H](NC(=O)[C@H](CCC(N)=O)NC(=O)[C@@H](N)CCCCN)[C@@H](C)O)[C@@H](C)O)C(=O)N[C@@H](C)C(=O)N1CCC[C@H]1C(=O)N[C@@H](CCCNC(=N)N)C(=O)N[C@@H](CCCCN)C(=O)N[C@@H](CCC(N)=O)C(=O)O [H3K9me3/K14ac] | 2 fold | – | – | – | relative binding affinity, Y268A (SETDB1 3TD Y268A (TD2)): specific loss in binding |

Continued, molecule first:

| SMILES | change of binding, Y268A (SETDB1 3TD Y268A) | change of peptide array binding, W358A (SETDB1 3TD W358A) | peptide array binding, 3TD [1] | fold reduction of affinity, W358A (SETDB1 3TD W358A (TD3)) | K9 methylation content of H3 from treated cells (HEK293 cells [2]) | H3K14ac signal of H3 from treated cells (HEK293 cells [2]) | 3TD binding to histones from treated cells (HEK293 cells [3]) | also measured |
| --- | --- | --- | --- | --- | --- | --- | --- | --- |
| C[C@H](NC(=O)[C@@H](NC(=O)[C@H](CCC(N)=O)NC(=O)[C@@H](N)CCCCN)[C@@H](C)O)C(=O)N[C@@H](CCCNC(=N)N)C(=O)N[C@@H](CCCC[N+](C)(C)C)C(=O)N[C@@H](CO)C(=O)N[C@H](C(=O)NCC(=O)NCC(=O)N[C@@H](CCCCN)C(=O)N[C@@H](C)C(=O)N1CCC[C@H]1C(=O)N[C@@H](CCCNC(=N)N)C(=O)N[C@@H](CCCCN)C(=O)N[C@@H](CCC(N)=O)C(=O)O)[C@@H](C)O [H3K9me3] | – | – | – | – | – | – | – | binding detected by NMR (SETDB1 3TD, wildtype): no detectable binding |
| CCCC(=O)[O-].[Na+] [sodium butyrate] | – | – | – | – | did not change | increased H3K14ac signal | increased 3TD binding | – |
| CC(/C=C/C(=O)NO)=C\[C@@H](C)C(=O)c1ccc(N(C)C)cc1 [trichostatin A] | – | – | – | – | did not change | increased H3K14ac signal | increased 3TD binding | – |
